Earlier results in PMC12119673, “Apoptotic cell death induced by copper (II), manganese (II) and silver (I) complexes containing bridging dicarboxylate and 1,10-phenanthroline ligands: one of the multi-modes of anticancer activity?” (Biometals, 2025).

Tests used:
Design in all cases: method as in Kellett et al. [2011]; Slator et al. [2017]
HT29, SW480 and SW620 = settings: ref Kellett et al. [2011], Slator et al. [2017]; cited from earlier work
HaCaT cells = settings: HaCaT vs colorectal cancer lines; ref Kellett et al. [2011]; Slator et al. [2017]; cited from earlier work
Galleria Mellonella = settings: ref Kellett et al. [2011], Slator et al. [2017]; cited from earlier work

## O.O.O=C([O-])CCCCCCC(=O)[O-].[Mn+2].[Mn+2].c1cnc2c(c1)ccc1cccnc12.c1cnc2c(c1)ccc1cccnc12.c1cnc2c(c1)ccc1cccnc12.c1cnc2c(c1)ccc1cccnc12 [[Mn2(μ-oda)(phen)4(H2O)2]^2+]
HT29, SW480 and SW620
  Cytotoxicity towards colorectal cancers: nano-molar cytotoxicity
HaCaT cells
  Reduction in potency towards non-cancerous cells: almost tenfold reduction in potency
Galleria Mellonella
  In vivo tolerance: well-tolerated
